Consider one compound from US9186335B2, “Hot melt TTS for administering rotigotine” (UCB PHARMA GMBH, priority 2002, dated 2015).

The nature of this data set: Rotigotine purity/stability in the hot-melt adhesive matrix by gradient HPLC with UV detection. Type of data set: physicochemical. As to conditions: short-term heating to temperatures up to at least 160° C.

Consider `CCCN(CCc1cccs1)[C@H]1CCc2c(O)cccc2C1` [Rotigotine, (−)-5,6,7,8-tetrahydro-6-[propyl[2-(2-thienyl)ethyl)amino]-1-napththol], for which the stability under heating result was “remains stable”.
